Calls of active or inactive are those of the source. No cut-off for these calls is given here.
Key:
[1] = Cytotoxicity against human BEAS-2B cells assessed as inhibition of cell viability incubated for 48 hrs by MTT assay; assay type: toxicity, cell-based
NCI-H460 = test: Cytotoxicity against human NCI-H460 cells assessed as inhibition of cell viability incubated for 48 hrs by MTT assay; assay type: functional, cell-based; details: NCI-H460, 48 h
NCI-H1975 [2] = test: Inhibition of cell viability in human NCI-H1975 cells assessed as effect on cell index at 30 nM by real-time cell analysis; assay type: functional, cell-based
NCI-H1975 [3] = test: Inhibition of cell viability in human NCI-H1975 cells assessed as cell index at 270 nM measured after 48 hrs by real-time cell analysis; assay type: functional
[4] = Drug accumulation in mitochondria of human NCI-H1975 cells at 10 uM incubated for 7 hrs by HPLC analysis; assay type: ADME; details: nci-h1975, 7 h
NCI-H1975 [5] = test: Induction of apoptosis in human NCI-H1975 cells assessed as nuclear shrinkage at 400 nM incubated for 24 hrs by DAPI staining based analysis; assay type: functional, cell-based
BEAS-2B [6] = test: Induction of apoptosis in human BEAS-2B cells assessed as morphological change in nucleus at 50 to 400 nM incubated for 24 hrs by DAPI staining based analysis; assay type: toxicity, cell-based; details: 0.4 µM, dose 50-400 nM
NCI-H1975 [7] = test: Induction of late apoptosis in human NCI-H1975 cells at 50 to 400 nM incubated for 24 hrs by Annexin V-FITC/PI staining based flow cytometry; assay type: functional, cell-based; details: dose 50-400 nM
BEAS-2B [8] = test: Induction of apoptosis in human BEAS-2B cells at 50 to 400 nM incubated for 24 hrs by Annexin V-FITC/PI staining based flow cytometry; assay type: toxicity, cell-based; details: 0.4 µM, dose 50-400 nM
NCI-H1975 [9] = test: Induction of apoptosis in human NCI-H1975 cells at 50 to 400 nM incubated for 24 hrs by Annexin V-FITC/PI staining based flow cytometry; assay type: functional, cell-based; details: dose 50-400 nM
BEAS-2B [10] = test: Induction of ROS generation in human BEAS-2B cells at 0.4 uM incubated for 24 hrs by DCFH-DA probe based analysis; assay type: toxicity, cell-based
NCI-H1975 [11] = test: Inhibition of cell migration in human NCI-H1975 cells at 2.5 to 5 nM incubated upto 72 hrs by scratch healing assay; assay type: functional, cell-based; details: dose 2.5-5 nM
[12] = Toxicity in zebrafish at 2 uM; parameters: species or system Danio rerio; details: in vivo
[13] = Developmental toxicity in zebrafish AB zygotes assessed as animal mortality at 4 uM treated at 6 hrs post-fertilization measured at 24 to 72 hrs post-fertilization; parameters: species or system Danio rerio; details: in vivo, time 18-66 hrs
[14] = Toxicity in zebrafish embryo assessed as degree of periocular edema at 0.5 uM pretreated with compound followed by replacement of growth liquid by microscopy (reference value: 0.00 %); parameters: species or system Danio rerio; details: in vivo
[15] = Toxicity in zebrafish embryo assessed as degree of periocular edema at 1 uM pretreated with compound followed by replacement of growth liquid by microscopy (reference value: 0.00 %); parameters: species or system Danio rerio; details: in vivo
[16] = Toxicity in zebrafish embryo assessed as degree of periocular edema at 2 uM pretreated with compound followed by replacement of growth liquid by microscopy (reference value: 0.00 %); parameters: species or system Danio rerio; details: in vivo
[17] = Toxicity in zebrafish embryo assessed as death rate at 0.5 uM pretreated with compound followed by replacement of growth liquid by microscopy (reference value: 0.00 %); parameters: species or system Danio rerio; details: in vivo, read-out: Activity
[18] = Toxicity in zebrafish embryo assessed as death rate at 1 uM pretreated with compound followed by replacement of growth liquid by microscopy (reference value: 2.22 +/- 3.84 %); parameters: species or system Danio rerio; details: in vivo, read-out: Activity
[19] = Toxicity in zebrafish embryo assessed as death rate at 2 uM pretreated with compound followed by replacement of growth liquid by microscopy (reference value: 2.22 +/- 3.84 %); parameters: species or system Danio rerio; details: in vivo, read-out: Activity
[20] = Toxicity in zebrafish embryo assessed as death rate at 4 uM pretreated with compound followed by replacement of growth liquid by microscopy (reference value: 2.22 +/- 3.84 %); parameters: species or system Danio rerio; details: in vivo, read-out: Activity
[21] = Toxicity in zebrafish embryo assessed as liver development at 0.25 uM with replacement of new growth solution daily by fluorescence microscopy (reference value: 100.00 +/- 8.64 %); assay type: tissue-based, Danio rerio; details: in vivo
[22] = Toxicity in zebrafish embryo assessed as liver development at 0.5 uM with replacement of new growth solution daily by fluorescence microscopy (reference value: 100.00 +/- 8.64 %); assay type: tissue-based, Danio rerio; details: in vivo
[23] = Toxicity in zebrafish embryo assessed as damage effect in liver development at 0.25 uM with replacement of new growth solution daily by fluorescence microscopy relative to control; parameters: species or system Danio rerio; details: in vivo
[24] = Toxicity in zebrafish embryo assessed as damage effect in liver development at 0.5 uM with replacement of new growth solution daily by fluorescence microscopy relative to control; assay type: tissue-based, Danio rerio; details: in vivo
[25] = Toxicity in zebrafish embryo assessed as liver function at 0.25 uM with replacement of new growth solution daily by fluorescence microscopy (reference value: 100 +/- 8.89 %); assay type: tissue-based, Danio rerio; details: in vivo
[26] = Toxicity in zebrafish embryo assessed as liver function at 0.5 uM with replacement of new growth solution daily by fluorescence microscopy (reference value: 100 +/- 8.89 %); assay type: tissue-based, Danio rerio; details: in vivo
[27] = Toxicity in zebrafish embryo assessed as liver function at 1 uM with replacement of new growth solution daily by fluorescence microscopy (reference value: 100 +/- 8.89 %); assay type: tissue-based, Danio rerio; details: in vivo
[28] = Toxicity in zebrafish embryo assessed as liver function at 2 uM with replacement of new growth solution daily by fluorescence microscopy (reference value: 100 +/- 8.89 %); assay type: tissue-based, Danio rerio; details: in vivo
[29] = Toxicity in zebrafish embryo assessed as damage effect in liver function at 0.25 uM with replacement of new growth solution daily by fluorescence microscopy relative to control; assay type: tissue-based, Danio rerio; details: in vivo
[30] = Toxicity in zebrafish embryo assessed as damage effect in liver function at 0.5 uM with replacement of new growth solution daily by fluorescence microscopy relative to control; assay type: tissue-based, Danio rerio; details: in vivo
NCI-H1975 [31] = test: Cytotoxicity against human NCI-H1975 cells assessed as cell growth inhibition at 4.5 to 10 nM incubated for 48 hrs by MTT assay relative to control; assay type: functional; details: dose 4.5-10 nM
Danio rerio = species on record: Danio rerio; test: Induction of ROS production in zebrafish at 1 to 2 uM measured after 48 hrs by fluorescence microscopy; assay type: functional, organism-based; details: dose 1-2 µM
[32] = Toxicity in zebrafish xenografted with human NCI-H1975 cells assessed as body deformity at 1 uM; parameters: species or system Danio rerio
[33] = Developmental toxicity in zebrafish AB zygotes assessed as embryo malformation at 0.5 to 2 uM treated at 6 hrs post-fertilization measured at 24 to 72 hrs post-fertilization; parameters: species or system Danio rerio; details: in vivo, dose lower 0.5 µM, time lower 18 hrs, dose upper 2 µM, time upper 66 hrs
[34] = Developmental toxicity in zebrafish AB zygotes assessed as decrease in body length at 0.25 to 4 uM treated at 6 hrs post-fertilization measured at 24 to 72 hrs post-fertilization; parameters: species or system Danio rerio; details: in vivo, dose lower 0.25 µM, time lower 18 hrs, dose upper 4 µM, time upper 66 hrs
[35] = Renal toxicity in zebrafish assessed as FITC dye residue at 0.25 to 1 uM treated for 24 hrs followed by dye treatment measured after 6 hrs by fluorescence microscopy; parameters: species or system Danio rerio; details: in vivo, 30 h, dose 0.25-1 µM
[36] = Renal toxicity in zebrafish assessed as increase in Kim1 expression at 0.5 to 2 uM treated for 48 hrs by RT-qPCR analysis; parameters: species or system Danio rerio; details: in vivo, dose 0.5-2 µM

SMILES	Drug uptake [4]	inhibition (NCI-H1975 [11])	Activity [12]	Activity [13]	Activity [14]	Activity [15]	Activity [16]	mortality at 24 h, 0.5 µM [17]	mortality at 1 µM [18]	mortality at 2 µM [19]	mortality at 4 µM [20]	Activity [21]	Activity [22]	Activity [23]	Activity [24]	Activity [25]	Activity [26]	Activity [29]	Activity [30]	also measured
CC(C)[C@]12O[C@H]1[C@@H]1O[C@]13[C@]1(O[C@H]1C[C@H]1C4=C(CC[C@@]13C)C(=O)OC4)[C@@H]2OC(=O)CCCCCCCC[n+]1ccc(/C=C/c2c[nH]c3ccccc23)cc1.[Br-]	Active	Active	Non-Toxic	Non-Toxic	2.22%	13.33%	33.33%	2.22%	6.67%	6.67%	11.1%	95.17%	85%	4.83%	15.05%	61.46%	51.53%	38.54%	48.47%	IC50 at 48 h [1]: 19.2 µM; IC50 (NCI-H460): 4.78 µM; inhibition (NCI-H1975 [2]): Active; Activity_index (NCI-H1975 [3]): 0; Activity (NCI-H1975 [5]): Active; Activity (BEAS-2B [6]): Non-Toxic; Activity (NCI-H1975 [7]): Active; Activity (BEAS-2B [8]): Non-Toxic; Activity (NCI-H1975 [9]): Active; Activity (BEAS-2B [10]): Toxic; Activity [27]: 27.18%; Activity [28]: 20.04%
CC(C)[C@]12O[C@H]1[C@@H]1O[C@@]13[C@@]1(C)CCC4=C(COC4=O)[C@@H]1C[C@@H]1O[C@@]13C2=O [TRIPTONIDE]	Active	Active	Toxic	Toxic	6.67%	13.33%	48.89%	2.22%	11.1%	13.3%	22.2%	87.8%	45.38%	12.2%	54.62%	50.55%	23.09%	49.45%	76.91%	Imax (NCI-H1975 [31]): ~40%; Activity (Danio rerio): Active; Activity [32]: Toxic; Activity [33]: Toxic; Activity [34]: Toxic; Activity [35]: Toxic; Activity [36]: Toxic

From ChEMBL document CHEMBL5537157, “Selective Antitumor Effect and Lower Toxicity of Mitochondrion-Targeting Derivatization of Triptolide” (J Med Chem, 2024)
